In US4886785A, “Pyrimidine derivatives, pharmaceutical compositions and method of using same” (Hoffmann-La Roche Inc., priority 1986, dated 1989):

molecular target: herpes simplex virus type 2 (HSV-2) thymidine kinase (Human herpesvirus 2, UniProt P89446); test: Inhibition of herpes simplex virus type 2 (HSV-2) thymidine kinase in vitro (3H-thymidine phosphorylation); type: biochemical; conditions: thymidine kinase extract, 0.3 μM 3H-thymidine, 5 mM ATP, pH 8, 37° C., 30 minutes
Protocol: In this test, the assay mixture contains 50 mM Tris-HCl, pH 8, 5 mM magnesium chloride, 5 mM ATP, 0.3 μM ^3 H-thymidine (50 Ci/mmol), suitably diluted thymidine kinase extract and various concentrations of compounds of formula I or tautomers in a total volume of 100 μl. Assays are incubated at 37° C. for 30 minutes and the reaction is terminated by immersion in a boiling water bath for 2 minutes. 85 μl aliquots from each assay are then dried on cellulose paper discs and the unphosphorylated ^3 H-thymidine is removed by washing in 4 mM ammonium formate. The radioactivity remaining bound to the discs is then measured by scintillation spectrophotometry. The degree of inhibition at each concentration of compound of formula I is expressed as a percentage of the control reaction (100%) after substracting a measured blank value which represents the amount of radioactivity bound to the disc from a reaction containing heat inactivated enzymes. The IC50 value, namely the concentration of compound of formula I or tautomer thereof which inhibits enzyme activity by 50%, is then calculated. The results obtained with representative compounds of formula I are compiled in the following Table: […]

Chain of herpes simplex virus type 2 (HSV-2) thymidine kinase (P89446 whole entry): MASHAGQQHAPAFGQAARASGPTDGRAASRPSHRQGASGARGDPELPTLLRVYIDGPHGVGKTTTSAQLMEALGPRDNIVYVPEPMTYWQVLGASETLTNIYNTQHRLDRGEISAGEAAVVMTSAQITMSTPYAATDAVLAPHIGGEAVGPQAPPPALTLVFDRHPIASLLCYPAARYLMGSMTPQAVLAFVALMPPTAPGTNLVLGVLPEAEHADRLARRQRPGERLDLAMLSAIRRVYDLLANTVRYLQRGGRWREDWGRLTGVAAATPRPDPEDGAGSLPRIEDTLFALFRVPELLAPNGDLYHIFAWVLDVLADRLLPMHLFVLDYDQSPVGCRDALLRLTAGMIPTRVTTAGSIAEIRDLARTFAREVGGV

Compound | IC50
CCc1cn([C@H]2C[C@H](O)[C@@H](CNCc3cccc(Cl)c3Cl)O2)c(=O)[nH]c1=O [Example 4b, 5'-(2,3-dichlorobenzylamino)-2',5'-dideoxy-5-ethyluridine] | 60 nM
CCc1cn([C@H]2C[C@H](O)[C@@H](CNCc3c(Cl)cccc3Cl)O2)c(=O)[nH]c1=O [Example 4c, 5'-(2,6-dichlorobenzylamino)-2',5'-dideoxy-5-ethyluridine] | 80 nM
CCc1cn([C@H]2C[C@H](O)[C@@H](CNCCc3c(Cl)cccc3Cl)O2)c(=O)[nH]c1=O [Example 3b, 5'-[2-(2,6-dichlorophenyl)ethylamino]-2',5'-dideoxy-5-ethyluridine] | 90 nM
